Patent US4546079A, “Streptomyces species and process for producing antibiotic” (Bayer Aktiengesellschaft, priority 1981, dated 1985)
*1 amine or outer side, *2 acyl side, *3 side chain or, on linkers, in order; H or OH if unused. Where a SMILES comes first, the peptide text is derived from it. [ ]: non-standard residue; d: D form. ξ: configuration not given here. X1 = Cn1c(=NC(N)=O)ccn(C2SC(C(O)C(N[*:1])C(=O)[*:2])C(O)C2O)c1=O; ξOrn(N(OH)Ac) = CC(=O)N(O)CCCC(N)C(=O)O; ξS = NC(CO)C(=O)O

Tests used:
physchem = settings: organic solvent or mixture
E. coli C 165 = experiment: agar dilution test (NCCLS), in vitro activity; type: cell-based
Staphylococcus aureus = experiment: animal test (mice), ED100; type: in vivo; settings: sc, i.p. infection, s.c. treatment, all animals survive, read-out: ED100 after intra-peritoneal infection and subcutaneous treatment
Method: (§1) | ED100 after intra-peritoneal | infection and subcutaneous The animals were infected with a quantity of bacteria, which quantity led to the death of the control animals during the course of 24 hours. The ED100 was the dose which allowed all infected and treated animals to survive.

E. coli Neumann = experiment: animal test (mice), ED100; type: in vivo; settings: Escherichia coli, sc, i.p. infection, s.c. treatment, all animals survive, read-out: ED100 after intra-peritoneal infection and subcutaneous treatment
Method: as §1

E. coli 205 Kn = experiment: animal test (mice), ED100; type: in vivo; settings: Escherichia coli, sc, i.p. infection, s.c. treatment, all animals survive, read-out: ED100 after intra-peritoneal infection and subcutaneous treatment
Method: as §1

Klebsiella pneumoniae 63 = experiment: animal test (mice), ED100; type: in vivo; settings: sc, i.p. infection, s.c. treatment, all animals survive, read-out: ED100 after intra-peritoneal infection and subcutaneous treatment
Method: as §1

E. coli 14 = experiment: agar dilution test (NCCLS), in vitro activity; type: cell-based
[1] = pH 7
E. coli Newmann = experiment: ED100 (complete cure) in the white mouse; type: in vivo; settings: Escherichia coli, sc, 0.5 h, once, 30 minutes after infection, subcutaneously
Method: An ED100 (complete cure) is found in vivo for the white mouse, at 3 mg of antibiotic/kg of body weight, in the case of infection with E. coli […]; therapy: application once, 30 minutes after infection, subcutaneously.

solubility (physchem; chloroform): < 100 µg/mL | solubility (physchem; dimethylformamide): < 10000 µg/mL | solubility (physchem; dimethylsulphoxide): < 10000 µg/mL | solubility (physchem; ether): < 100 µg/mL | solubility (physchem; ethyl acetate): < 100 µg/mL | solubility (physchem; methanol): < 10000 µg/mL | solubility (physchem; petroleum ether): < 100 µg/mL | solubility in water [1]: unlimited solubility
SMILES: CC(=O)N(O)CCCC(N)C(=O)NC(CCCN(O)C(C)=O)C(=O)NC(CCCN(O)C(C)=O)C(=O)NC(CO)C(=O)NC(C(=O)O)C(O)C1SC(n2ccc(=NC(N)=O)n(C)c2=O)C(O)C1O (stereo not drawn) [BAY i 3265 component B] (H-[ξOrn(N(OH)Ac)][ξOrn(N(OH)Ac)][ξOrn(N(OH)Ac)][ξS][X1]-OH)
in vitro activity (E. coli C 165): in vitro activity is found | ED100 (Staphylococcus aureus): 0.6 mg/kg | ED100 (E. coli Neumann): 0.5 mg/kg | ED100 (E. coli 205 Kn): 0.1 mg/kg | ED100 (Klebsiella pneumoniae 63): 0.2 mg/kg | in vitro activity (E. coli 14): in vitro activity is found | ED100 (E. coli Newmann): 3 mg/kg
